In one data set the test system is INS-1E cells. Briefly: Luciferase Insulin Secretion Assay (proinsulin-Gaussia luciferase reporter). Type of data set: cell-based, rat. The settings on record: INS-1E cells; 2.8 mM vs 16.7 mM glucose. More on the design: key to Activity: Active: a compound is identified as active if the compound has a Z-score greater than 3 in the presence of 16.7 mM glucose; Partial activity indicates that the compound does promote insulin secretion (at lower Z-scores); Lost Glucose Dependence: In some cases, insulin secretion was promoted at both measured insulin concentrations. The text has this:
A high-throughput luminescent insulin secretion assay was developed and performed to identify compounds that amplified insulin secretion only in the presence of a permissive glucose environment (FIG. 3). The assay used in compound screening is described in International Patent Publication No. WO2013070796A3, PCT/US2012/063982, and in Burns et al., High-Throughput Luminescent Reporter of Insulin Secretion for Discovering Regulators of Pancreatic Beta-Cell Function. Cell Metab. 2015 Jan. 6; 21(1):126-37.
The assay is a luminescent insulin secretion assay created by inserting Gaussia luciferase within the C-peptide portion of the insulin prohormone. Gaussia luciferase was chosen because of its small size and bright luciferase signal. To ensure full activity of the luciferase, a version was used that was codon-optimized for expression in mammalian cells. The enzyme was flanked with additional cleavage sites for prohormone convertase 2 (PC2), such that no extra amino acids should be present on the ends of the enzyme after processing within the vesicles (FIG. 4). Rat (INS-1E; Merglen et al., 2004) beta-cell lines stably expressing the reporter construct were generated. Assays using this cell type are referred to herein as Luciferase Insulin Secretion Assay.
A search for glucose-dependent insulin secretagogues was conducting by screening 384,216 compounds at a single concentration (10 μM) in duplicate using the Luciferase Insulin Secretion Assay, to identify those that increase insulin secretion only in the presence of high glucose (11.1 mM) (FIG. 6). These assays were performed in 1536 well format. A Z′ factor of 0.35 was obtained with respect the positive control (300 μM IBMX). The cutoff value selected was 45% activation, which was 3-4 standard deviations above background (solid uppermost line; FIG. 6).
For standard secretion assays, INS-1E cells were plated in 96-well format, preincubated for 1 hr in Krebs Ringer Buffer (KRB) with 2.8 mM glucose, and then stimulated for 1 hr in fresh KRB containing varying amounts of glucose and compounds. Insulin or C-peptide concentration was determined using an ELISA (Mercodia), following the manufacturer's protocol. Luciferase activity was determined from the same samples by adding the coelenterazine substrate to the supernatant to a final concentration of 10 μM and reading on a standard plate reader (BioTek).
INS-1E cells were expanded to 80% confluence in their growth medium, washed once in PBS, and preincubated for 1 hr at 37° C. in KRB with 2.8 mM glucose. Cells were then dissociated, spun at 300×g for 2 min, resuspended in fresh KRB without glucose, and filtered through 40 μm mesh (Becton Dickinson). Next, the cells were counted and diluted in KRB to 1×10^6 cells per ml, and glucose was added as required for each experiment. Cells were then seeded in 384-well format, 3×10^4 cells in 30 μl per well, using a Multidrop Combi device (Thermo Scientific). Compounds were pinned into each well using a Vario robot (CyBio) to a final concentration of 30 μM, and the plates were then incubated for 2 hr at 37° C. For assays involving a transfer step, the plates were then centrifuged at 300×g for 2 min, and 20 μl of supernatant was transferred to a new 384-well plate. Coelenterazine substrate was then added to a final concentration of 10 μM, and luciferase activity was determined using a standard plate reader (BioTek).
For orientation: In a reporter assay the amount or activity of a reporter protein is the signal.
`Cc1cccc(C)c1NC(=O)c1ccc(OCc2c(C)noc2C)cc1` [Compound 16]: the “glucose-dependent (glucose-stimulated) insulin secretion, luciferase reporter” value is “some positive effect on secretion”.

The data set is the same for the next values; noted with them: Rattus norvegicus, INS-1E; glucose concentration of 16.7 mM.
The term EC50 denotes the concentration at which the effect is half-maximal. As for `Cc1cccc(NC(=O)c2ccc(OCc3c(C)cncc3C)cc2)c1C` [Compound 49, N-(2,3-Dimethyl-phenyl)-4-(3,5-dimethyl-pyridin-4-ylmethoxy)-benzamide], the concentration for a half-maximal effect (EC50) was approximately 82 nM.

The same data set, now with this note: glucose dependence of insulin secretion; Z-score in the presence of 16.7 mM glucose.
As to `Cc1cccc(NC(=O)c2ccc(OCc3c(C)cncc3C)cc2)c1C` [Compound 49, N-(2,3-Dimethyl-phenyl)-4-(3,5-dimethyl-pyridin-4-ylmethoxy)-benzamide], the result was Inactive.
On to `Cc1cccc(NC(=O)c2ccc(OCc3cccnc3C)cc2)c1C` [Compound 63, N-(2,3-Dimethyl-phenyl)-4-(2-methyl-pyridin-3-ylmethoxy)-benzamide], for which the result was Inactive.
As for `Cc1cccc(NC(=O)c2ccc(OCc3cnoc3)cc2)c1C` [Compound 47, N-(2,3-Dimethyl-phenyl)-4-(isoxazol-4-ylmethoxy)-benzamide], the result was Inactive.
On the same count and under the same terms, with `Cc1cccc(NS(=O)(=O)c2ccc(NCc3c(C)noc3C)cc2)c1C` [Compound 32] the entry was “Inactive”.
Same read-out and setting: with `Cc1cccc(NC(=O)c2ccc(N(C)Cc3c(C)noc3C)cc2)c1C` [Compound 56] the entry was “Inactive”.
On to `Cc1cc(NCc2c(C)noc2C)ccc1-c1cnc(-c2cccc(C)c2C)[nH]1` [Compound 31], for which the result was Inactive.
Regarding `Cc1cccc(-c2cnc(-c3ccc(NCc4c(C)noc4C)cc3)[nH]2)c1C` [Compound 27], the outcome was Inactive.
Still for that read-out and setting: with `Cc1noc(C)c1COc1ccc(C(=O)Nc2cccc3c2CCC3)cc1` [Compound 81, 4-(3,5-Dimethyl-isoxazol-4-ylmethoxy)-N-indan-4-yl-benzamide] the entry was “Inactive”; with `Cc1cccc(NC(=O)c2ccc(/C=C/c3c(C)noc3C)cc2)c1C` [Compound 55], “Partial activity, Lost Glucose Dependence”.
On the same count and under the same terms, with `Cc1cccc(NC(=O)c2ccc(/C=C\c3c(C)noc3C)cc2)c1C` [Compound 55 (cis)] the entry was “Inactive”; with `Cc1noc(C)c1COc1ccc(C(=O)Nc2cccc(Cl)c2Cl)cc1` [Compound 68, N-(2,3-Dichloro-phenyl)-4-(3,5-dimethyl-isoxazol-4-ylmethoxy)-benzamide], “Active”; with `Cc1cccc(NC(=O)c2ccc(OCc3c(C)noc3C)cn2)c1C` [Compound 45], “Inactive”.
For the compound `CC(=O)c1ccccc1NC(=O)c1ccc(OCc2c(C)noc2C)cc1` [Compound 85], the result was Inactive.
As to `Cc1cccc(NC(=O)c2ccc(OCc3c(C)noc3C)cc2)c1C#N` [Compound 69, N-(2-Cyano-3-methyl-phenyl)-4-(3,5-dimethyl-isoxazol-4-ylmethoxy)-benzamide], the outcome was Active.
`Cc1cccc(NC(=O)c2ccc(OCc3c(C)nn(C)c3C)cc2)c1C` [Compound 54]: the outcome was Inactive.
`Cc1cccc(NC(=O)c2ccc(OCc3c(C)ccnc3C)cc2)c1C` [Compound 50, N-(2,3-Dimethyl-phenyl)-4-(2,4-dimethyl-pyridin-3-ylmethoxy)-benzamide]: the result was Inactive.
For `Cc1noc(C)c1COc1ccc(C(=O)Nc2cccc(Cl)c2C)cc1` [Compound 72, N-(3-Chloro-2-methyl-phenyl)-4-(3,5-dimethyl-isoxazol-4-ylmethoxy)-benzamide], the result was Active.
Still for that read-out and setting: then `Cc1cccc(NC(=O)c2ccc(OCc3cccnc3Cl)cc2)c1C` [Compound 67, 4-(2-Chloro-pyridin-3-ylmethoxy)-N-(2,3-dimethyl-phenyl)-benzamide], with “Inactive”; and `Cc1noc(C)c1COc1ccc(C(=O)NC2CCCO2)cc1` (stereo not shown) [Compound 86], with “Inactive”.
Same read-out and setting: with `Cc1cccc(NC(=O)c2ccc(OCc3cnccc3Cl)cc2)c1C` [Compound 66, 4-(4-Chloro-pyridin-3-ylmethoxy)-N-(2,3-dimethyl-phenyl)-benzamide] the entry was “Inactive”.
As for `Cc1cccc(-c2cc(-c3ccc(OCc4c(C)noc4C)cc3)n[nH]2)c1C` [Compound 95], the outcome was Inactive.
Same read-out and setting: with `Cc1cccc(NC(=O)c2ccc(CNc3c(C)noc3C)cc2)c1C` [Compound 57, 4-[(3,5-Dimethyl-isoxazol-4-ylamino)-methyl]-N-(2,3-dimethyl-phenyl)-benzamide] the entry was “Inactive”.
As for `Cc1cc(OCc2c(C)noc2C)ccc1-c1cnc(-c2cccc(C)c2C)[nH]1` [Compound 93], the outcome was Inactive.
Same read-out and setting: with `CC1=CC(=O)Cc2cc(COc3ccc(C(=O)Nc4cccc(C)c4C)cc3)ccc21` [Compound 51] the entry was “Partial activity, Lost Glucose Dependence”; with `Cc1cccc(-c2noc(-c3ccc(NCc4c(C)noc4C)cc3)n2)c1C` [Compound 35], “Inactive”.
On to `Cc1ccc2nc(-c3ccc(NCc4c(C)noc4C)cc3)[nH]c2c1C` [Compound 36], for which the result was Inactive.
On the same count and under the same terms, then `CC(=O)NCCCc1cc(C(=O)Nc2cccc(C)c2C)ccc1OCc1c(C)noc1C` [Compound 88, 3-(3-Acetylamino-propyl)-4-(3,5-dimethyl-isoxazol-4-ylmethoxy)-N-(2,3-dimethyl-phenyl)-benzamide], with “Active”.
In the case of `Cc1cccc(NC(=O)c2ccc(CN(C)c3c(C)noc3C)cc2)c1C` [Compound 58, 4-{[(3,5-Dimethyl-isoxazol-4-yl)-methyl-amino]-methyl}-N-(2,3-dimethyl-phenyl)-benzamide], the outcome was Inactive.
On the same count and under the same terms, then `Cc1cccc(NC(=O)c2ccc(OCc3ccnnc3)cc2)c1C` [Compound 59, N-(2,3-Dimethyl-phenyl)-4-(pyridazin-4-ylmethoxy)-benzamide], with “Inactive”; and `COCc1ccccc1NC(=O)c1ccc(OCc2c(C)noc2C)cc1` [Compound 96, 4-(3,5-Dimethyl-isoxazol-4-ylmethoxy)-N-(2-methoxymethyl-phenyl)-benzamide], with “Inactive”.

The subject of another data set is alpha-TC-1-6. In words: Luminescent glucagon secretion assay in alpha-cell line. Type of data set: cell-based. The settings on record: compared with DMSO negative control. The method, then:
FIG. 10 depicts the quantification of α-cell secretory activity in cells treated with DMSO, KCl, or Compound 8, using a luminescent assay for glucagon secretion.
To investigate the cell-type specificity of the compound, and to exclude the possibility that Compound 8 acts as a generic secretagogue, the compound was tested on secretion from a rodent alpha-cell line, “alpha-TC-1-6,” using a luciferase reporter for glucagon secretion that mirrors the insulin secretion assay (FIG. 10).
As for `[Cl-].[K+]` [KCl, potassium chloride, reference compound], the “alpha-cell secretory activity (luciferase reporter for glucagon secretion)” value is “causes secretion”.

Test system in a further data set: not listed separately
In words: Plasma stability, human. Type of data set: in vitro ADME.
Details: not given
The method, then:
(§1) Measurements were performed on human, mouse (CD-1) and rat (SD) microsomes to determine the t1/2, the plasma protein binding (“PPB”) and the plasma stability (“PS”).
Compound `CC1CC(OC(=O)C(O)c2ccccc2)CC(C)(C)N1C` (stereo not shown) [eucatropine, reference compound] displayed a PS of 1.1 % remaining.

Test system in a further data set: not listed separately
In words: Plasma stability, mouse. Format: in vitro ADME.
Details: not given
The method, then:
as §1
With `CC1CC(OC(=O)C(O)c2ccccc2)CC(C)(C)N1C` (stereo not shown) [eucatropine, reference compound], the PS is reported as 24.6 % remaining.

Test system in the next data set: not listed separately
In words: Plasma stability, rat. Type of data set: in vitro ADME.
Details: not given
The method, then: as §1
For `CC1CC(OC(=O)C(O)c2ccccc2)CC(C)(C)N1C` (stereo not shown) [eucatropine, reference compound], the PS was determined as 32.4 % remaining.

Test system in the next data set: not listed separately
Briefly: Solubility (medicinal chemistry measurements). Format: physicochemical. The settings on record: relative to Compound 8.
Regarding `Cc1cccc(NC(=O)c2ccc(OCc3c(C)cncc3C)cc2)c1C` [Compound 49, N-(2,3-Dimethyl-phenyl)-4-(3,5-dimethyl-pyridin-4-ylmethoxy)-benzamide], the solubility result is reported as “lower solubility than Compound 8”.

Source of the values: patent US11555031B2, “Compounds and methods for regulating insulin secretion” (The Broad Institute, Inc., priority 2017, dated 2023).
